The values below come from patent publication US20060292073A1, “Stereoselective Synthesis of Amino Acid Analogs for Tumor Imaging” (priority 2005, published 2006).

The subject of data set [1] is A549 Lung tumor cells. Kind of data set: Amino acid uptake assay in vitro, A549 tumor cells ± transporter inhibitors. In kind it is cell-based, human. The note with it: 30 minutes incubation. The method, then: (§1) The tumor cells were initially grown as monolayers in T-flasks containing Dulbecco's Modified Eagle's Medium (DMEM) under humidified incubator conditions (37° C., 5% CO2/95% air). The growth media were supplemented with 10% fetal calf serum and antibiotics (10,000 units/ml penicillin and 10 mg/ml streptomycin). The growth media were replaced three times per week, and the cells were passaged so the cells would reach confluency in a week's time.
(§2) When the monolayers were confluent, cells were prepared for experimentation in the following manner. Growth media were removed from the T-flask, and the monolayer cells were exposed to 1× trypsin:EDTA for ˜1 minute to weaken the protein attachments between the cells and the flask. The flask was then slapped, causing the cells to release. Supplemented media were added to inhibit the proteolytic action of the trypsin, and the cells were aspirated through an 18 Ga needle until they were monodispersed. A sample of the cells was counted under a microscope using a hemocytometer, and the live/dead fraction estimated through trypan blue staining (>98% viability). The remainder of the cells was placed into a centrifuge tube, centrifuged at 75×g for 5 minutes, and the supernatant was removed. The cells were then resuspended in amino-acid/serum-free DMEM salts.
(§3) In this study, approximately 4.55×10^5 cells were exposed to either [^18F]10 (anti-FACBC) or [^18F]15 (syn-FACBC, 5 μCi) in 3 ml of amino acid free media ±transporter inhibitors (10 mM) for 30 minutes under incubator conditions in 12×75 mm glass vials. Each assay condition was performed in duplicate. After incubation, cells were twice centrifuged (75×g for 5 minutes) and rinsed with ice-cold amino-acid/serum-free DMEM salts to remove residual activity in the supernatant. The vials were placed in a Packard Cobra II Auto-Gamma counter, the raw counts decay corrected, and the activity per cell number determined. The data from these studies (expressed as percent uptake relative to control) were graphed using Excel, with statistical comparisons between the groups analyzed using a 1-way ANOVA (GraphPad Prism software package).
(§4) To test the hypothesis that [^18F]10 and [^18F]15 enter cells predominantly via the L-type amino acid transport system, amino acid uptake assays using cultured 9L gliosarcoma and a variety of human cancer cell lines in the presence and absence of two well-described inhibitors of amino acid transport were performed. […] The A- and L-type amino acid transport systems have been implicated in the in vivo uptake of radiolabeled amino acids used for tumor imaging.

Data set [2] deals with 9L gliosarcoma cells and a variety of human cancer cell lines. The data set is described as follows: Amino acid uptake assay in vitro as summarised in text. In kind it is cell-based, rat; human. As to conditions: for intracellular accumulation: absence of inhibitors, after 30 minutes of incubation; for amino acid transport system used for cell entry: based on inhibition of uptake in the presence of BCH. The method, then: as §1, §2, §3, §4

Data set [3] has as its system 9L gliosarcoma tumor / contralateral normal brain. Kind of data set: Rodent biodistribution in rats implanted intracranially with 9L gliosarcoma cells. In kind it is in vivo, male Fischer rats. As to conditions: for retention of radioactivity in tumor tissue: 60 minutes after intravenous injection, intracranial 9L tumor; for Ratios of tumor uptake to normal brain uptake: at 60 and 120 minutes after intravenous injection, printed as x:1. Here is the method: All animal experiments were carried out under humane conditions and were approved by the Institutional Animal Use and Care Committee (IUCAC) at Emory University. Rat 9L gliosarcoma cells were implanted into the brains of male Fischer rats. Briefly, anesthetized rats placed in a stereotactic head holder were injected with a suspension of 4×10^4 rat 9L gliosarcoma cells (1×10^7 per mL) in a location 3 mm right of midline and 1 mm anterior to the bregma at a depth of 5 mm deep to the outer table. The injection was performed over the course of 2 minutes, and the needle was withdrawn over the course of 1 minute to minimize the backflow of tumor cells. The burr hole and scalp incision were closed, and the animals were returned to their original colony after recovering from the procedure. Intracranial tumors developed that produced weight loss, apathy and hunched posture in the tumor-bearing rats, and the animals were used at 17-19 days after implantation. Of the 30 animals implanted with tumor cells, 25 developed tumors visible to the naked eye upon dissection and were used in the study. FIGS. 1-3 show the results of these studies.
The tissue distribution of radioactivity was determined in 16 normal male Fischer 344 rats (200-250 g) after intravenous injection of ˜85 μCi of [^18F]10 or [^18F]15 in 0.3 mL of sterile water. The animals were allowed food and water ad libitum before the experiment. The tail vein injections were performed in awake animals using a RTV-190 rodent restraint device (Braintree Scientific) to avoid mortality accompanying anesthesia in the presence of an intracranial mass. Groups of four rats were killed at 5 minutes, 30 minutes, 60 minutes and 120 minutes after injection of the dose. The animals were dissected, and selected tissues were weighed and counted along with dose standards in a Packard Cobra II Auto-Gamma Counter. The raw counts were decay corrected, and the counts were normalized as the percent of total injected dose per gram of tissue (% ID/g). A comparison of the uptake of activity in tumor tissue, […] at each time point was analyzed using a 1-way ANOVA (GraphPad Prism software package). FIGS. 1-3 below show the results of these studies.

Data set [4] has as its system U87 Glioma tumor cells. Kind of data set: Amino acid uptake assay in vitro, U87 tumor cells ± transporter inhibitors. It counts as cell-based, human. The note with it: 30 minutes incubation. Here is the method: as §1, §2, §3, §4
Data set [5] relates to DU145 Prostate tumor cells. The data set is described as follows: Amino acid uptake assay in vitro, DU145 tumor cells ± transporter inhibitors. In kind it is cell-based, human. As to conditions: 30 minutes incubation. The method, then:
as §1, §2, §3, §4

Data set [6] deals with SKOV3 Ovarian tumor cells. Kind of data set: Amino acid uptake assay in vitro, SKOV3 tumor cells ± transporter inhibitors. In kind it is cell-based, human. The note with it: 30 minutes incubation. The method, then: as §1, §2, §3, §4
Data set [7] deals with MB 468 Breast tumor cells. The data set is described as follows: Amino acid uptake assay in vitro, MB 468 tumor cells ± transporter inhibitors. The note with it: 30 minutes incubation. It counts as cell-based, human. The method, then: as §1, §2, §3, §4

As for `N[C@]1(C(=O)O)C[C@H]([18F])C1` [Syn-[^18F]FACBC, syn-[^18F]1-amino-3-fluorocyclobutane-1-carboxylic acid], the “Uptake in tumor cells expressed as percent uptake relative to control” value (shortened to “Uptake … as percent uptake relative to control”) in data set [1] (A549, BCH 10 mM) was found to be 3.85%; in data set [1] (A549, MeAIB 10 mM), 9.61%; in data set [1] (A549, no inhibitor) it was 11.91%; in data set [4] (U87, BCH 10 mM), 5.00%; in data set [4] (U87, MeAIB 10 mM), 14.80%; in data set [4] (U87, no inhibitor), 24.77%. For the same compound, the “Uptake … as percent uptake relative to control” value in data set [5] (DU145, BCH 10 mM) is 9.11%; in data set [5] (DU145, MeAIB 10 mM) it was 17.16%; in data set [5] (DU145, no inhibitor) it was 20.27%; in data set [6] (SKOV3, BCH 10 mM), 5.87%; in data set [6] (SKOV3, MeAIB 10 mM), 8.48%; in data set [6] (SKOV3, no inhibitor) it was 11.67%. Also, the “Uptake … as percent uptake relative to control” value in data set [7] (MB 468, BCH 10 mM) was 10.93%; in data set [7] (MB 468, MeAIB 10 mM), 28.25%; in data set [7] (MB 468, no inhibitor), 33.53%. Also, in data set [2], the intracellular accumulation is recorded as 0.50 % of the initial dose per million cells. Also, the “amino acid transport system used for cell entry” value in data set [2] is given as “substrates for the L-type amino acid transport system”. Besides, in data set [3], the “retention of radioactivity in tumor tissue” value is given as “high”. In data set [3], the “Ratios of tumor uptake to normal brain uptake” value was found to be 5.3.
For the compound `NC1(C(=O)O)CC([18F])C1` (stereo not drawn) [Anti-[^18F]FACBC, trans-(anti-) 1-amino-3-[^18F]fluorocyclobutane-1-carboxylic acid], the “Uptake … as percent uptake relative to control” value in data set [1] (A549, BCH 10 mM) is reported as 2.69%; in data set [1] (A549, MeAIB 10 mM), 11.02%; in data set [1] (A549, no inhibitor), 12.17%; in data set [4] (U87, BCH 10 mM) it was 1.51%; in data set [4] (U87, MeAIB 10 mM) it was 3.45%; in data set [4] (U87, no inhibitor), 3.41%. The “Uptake … as percent uptake relative to control” value in data set [5] (DU145, BCH 10 mM) is on record as 4.16%; in data set [5] (DU145, MeAIB 10 mM) it was 13.90%; in data set [5] (DU145, no inhibitor), 16.06%; in data set [6] (SKOV3, BCH 10 mM), 1.44%; in data set [6] (SKOV3, MeAIB 10 mM) it was 6.39%; in data set [6] (SKOV3, no inhibitor) it was 4.68%. Also, the “Uptake … as percent uptake relative to control” value stood at 4.43% in data set [7] (MB 468, BCH 10 mM); 14.80% in data set [7] (MB 468, MeAIB 10 mM); 15.51% in data set [7] (MB 468, no inhibitor). In addition, the intracellular accumulation in data set [2] is on record as 0.43 % of the initial dose per million cells. The “amino acid transport system used for cell entry” value in data set [2] was “substrates for the L-type amino acid transport system”. In addition, in data set [3], the “retention of radioactivity in tumor tissue” value is given as “high”. In addition, the “Ratios of tumor uptake to normal brain uptake” value in data set [3] amounted to 6.5.
